According to patent US10092563B2, “Phosphatidylinositol 3-kinase inhibitors” (Gilead Sciences, Inc., priority 2014, dated 2018):

Columns and labels:
Assay in all cases: TR-FRET enzymatic assay of PI3K isoforms
Assay type in all cases: biochemical
PI3Kγ = PI3Kγ (Homo sapiens (Human), UniProt P48736); conditions: 2× Km ATP, 30 minutes at 25° C.
Experimental: (§1) The compounds of formula (I) were characterized for their enzymatic activity against the PI3K isoforms. The activities were measured using a time-resolved fluorescence resonance energy transfer (TR-FRET) assay.

PI3Kδ = PI3Kδ (Homo sapiens (Human), UniProt O00329); conditions: 2× Km ATP, 30 minutes at 25° C.
Experimental: as §1

PI3Kβ = PI3Kβ (Homo sapiens (Human), UniProt P42338); conditions: for PI3Kγ/PI3Kβ ratio: ratio of IC50 PI3Kγ to IC50 PI3Kβ (fold)
Experimental: as §1

Chain of PI3Kγ (P48736 whole entry, canonical isoform): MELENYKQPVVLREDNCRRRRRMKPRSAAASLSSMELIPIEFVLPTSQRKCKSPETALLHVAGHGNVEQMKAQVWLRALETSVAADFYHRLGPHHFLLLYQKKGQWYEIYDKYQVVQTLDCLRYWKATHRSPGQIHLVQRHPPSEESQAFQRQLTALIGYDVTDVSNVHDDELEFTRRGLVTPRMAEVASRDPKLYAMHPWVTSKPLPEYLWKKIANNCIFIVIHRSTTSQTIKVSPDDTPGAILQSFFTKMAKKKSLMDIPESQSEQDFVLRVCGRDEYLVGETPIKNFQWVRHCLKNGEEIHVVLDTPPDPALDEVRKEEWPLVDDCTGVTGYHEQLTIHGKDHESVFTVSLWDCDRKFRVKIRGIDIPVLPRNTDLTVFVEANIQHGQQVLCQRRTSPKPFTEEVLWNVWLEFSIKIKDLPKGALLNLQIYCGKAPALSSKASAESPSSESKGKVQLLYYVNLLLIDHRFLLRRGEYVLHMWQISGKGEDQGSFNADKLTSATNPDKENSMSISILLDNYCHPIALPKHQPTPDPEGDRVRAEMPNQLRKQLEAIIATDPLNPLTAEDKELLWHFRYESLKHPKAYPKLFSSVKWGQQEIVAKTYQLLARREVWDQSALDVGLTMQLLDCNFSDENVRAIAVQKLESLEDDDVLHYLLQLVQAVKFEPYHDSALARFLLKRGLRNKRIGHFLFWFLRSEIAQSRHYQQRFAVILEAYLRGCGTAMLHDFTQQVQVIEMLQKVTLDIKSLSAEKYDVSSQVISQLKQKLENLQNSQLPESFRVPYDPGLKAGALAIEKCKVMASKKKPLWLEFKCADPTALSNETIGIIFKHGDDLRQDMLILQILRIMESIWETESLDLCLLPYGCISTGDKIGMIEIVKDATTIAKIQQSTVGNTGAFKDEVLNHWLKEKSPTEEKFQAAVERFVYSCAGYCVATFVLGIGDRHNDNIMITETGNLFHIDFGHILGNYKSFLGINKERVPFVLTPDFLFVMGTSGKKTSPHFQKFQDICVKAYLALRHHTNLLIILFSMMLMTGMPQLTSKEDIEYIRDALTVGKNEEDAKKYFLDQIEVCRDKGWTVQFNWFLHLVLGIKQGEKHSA
Chain of PI3Kγ (Q8WYR1 whole entry partner, canonical isoform): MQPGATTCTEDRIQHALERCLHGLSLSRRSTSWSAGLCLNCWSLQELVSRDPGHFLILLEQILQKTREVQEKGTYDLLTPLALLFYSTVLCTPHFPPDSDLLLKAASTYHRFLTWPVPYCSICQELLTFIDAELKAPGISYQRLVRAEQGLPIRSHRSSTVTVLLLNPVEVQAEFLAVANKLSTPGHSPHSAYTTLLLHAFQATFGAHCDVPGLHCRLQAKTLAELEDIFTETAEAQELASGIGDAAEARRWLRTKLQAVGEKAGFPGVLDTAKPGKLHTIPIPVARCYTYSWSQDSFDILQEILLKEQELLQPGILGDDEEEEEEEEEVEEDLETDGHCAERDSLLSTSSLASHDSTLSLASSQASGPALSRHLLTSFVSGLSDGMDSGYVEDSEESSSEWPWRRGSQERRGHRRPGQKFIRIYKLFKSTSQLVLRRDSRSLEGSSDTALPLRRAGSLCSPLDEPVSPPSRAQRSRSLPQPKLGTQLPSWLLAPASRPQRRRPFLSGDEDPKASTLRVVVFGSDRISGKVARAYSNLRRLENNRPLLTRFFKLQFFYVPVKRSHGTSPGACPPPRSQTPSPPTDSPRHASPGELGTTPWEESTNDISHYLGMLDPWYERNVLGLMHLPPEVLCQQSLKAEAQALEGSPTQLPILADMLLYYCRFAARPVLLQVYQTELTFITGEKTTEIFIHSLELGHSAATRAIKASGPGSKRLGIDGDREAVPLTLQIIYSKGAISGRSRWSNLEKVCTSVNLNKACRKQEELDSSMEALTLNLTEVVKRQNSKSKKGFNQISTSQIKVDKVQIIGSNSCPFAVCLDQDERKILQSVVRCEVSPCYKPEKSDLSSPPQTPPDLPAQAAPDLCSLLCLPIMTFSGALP
Chain of PI3Kδ (O00329 whole entry): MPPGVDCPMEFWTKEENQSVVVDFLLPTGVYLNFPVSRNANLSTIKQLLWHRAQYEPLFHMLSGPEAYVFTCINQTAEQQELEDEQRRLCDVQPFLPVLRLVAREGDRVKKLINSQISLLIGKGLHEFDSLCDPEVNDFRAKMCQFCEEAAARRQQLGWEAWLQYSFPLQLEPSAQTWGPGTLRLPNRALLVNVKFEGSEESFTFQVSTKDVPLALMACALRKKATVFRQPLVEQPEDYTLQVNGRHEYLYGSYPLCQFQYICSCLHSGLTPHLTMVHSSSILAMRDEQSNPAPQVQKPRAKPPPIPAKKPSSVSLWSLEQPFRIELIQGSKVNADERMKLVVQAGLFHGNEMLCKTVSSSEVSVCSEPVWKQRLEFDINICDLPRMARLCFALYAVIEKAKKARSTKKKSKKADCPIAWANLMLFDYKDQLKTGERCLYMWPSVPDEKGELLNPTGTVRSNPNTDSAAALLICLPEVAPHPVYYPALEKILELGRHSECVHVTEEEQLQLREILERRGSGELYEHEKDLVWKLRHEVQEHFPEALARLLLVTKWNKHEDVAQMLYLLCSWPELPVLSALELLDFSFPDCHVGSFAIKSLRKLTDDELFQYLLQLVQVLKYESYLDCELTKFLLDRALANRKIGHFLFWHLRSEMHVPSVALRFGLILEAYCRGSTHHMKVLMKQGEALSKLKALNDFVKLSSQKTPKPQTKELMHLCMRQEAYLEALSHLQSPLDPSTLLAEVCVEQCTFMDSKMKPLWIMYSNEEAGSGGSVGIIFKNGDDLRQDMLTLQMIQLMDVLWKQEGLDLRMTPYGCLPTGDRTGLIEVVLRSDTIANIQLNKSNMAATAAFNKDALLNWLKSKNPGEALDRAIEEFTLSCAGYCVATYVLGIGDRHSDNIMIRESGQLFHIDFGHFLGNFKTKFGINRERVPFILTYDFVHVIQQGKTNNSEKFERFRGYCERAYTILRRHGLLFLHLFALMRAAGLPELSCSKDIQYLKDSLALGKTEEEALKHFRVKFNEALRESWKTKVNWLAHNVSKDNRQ
Chain of PI3Kδ (P27986 whole entry partner): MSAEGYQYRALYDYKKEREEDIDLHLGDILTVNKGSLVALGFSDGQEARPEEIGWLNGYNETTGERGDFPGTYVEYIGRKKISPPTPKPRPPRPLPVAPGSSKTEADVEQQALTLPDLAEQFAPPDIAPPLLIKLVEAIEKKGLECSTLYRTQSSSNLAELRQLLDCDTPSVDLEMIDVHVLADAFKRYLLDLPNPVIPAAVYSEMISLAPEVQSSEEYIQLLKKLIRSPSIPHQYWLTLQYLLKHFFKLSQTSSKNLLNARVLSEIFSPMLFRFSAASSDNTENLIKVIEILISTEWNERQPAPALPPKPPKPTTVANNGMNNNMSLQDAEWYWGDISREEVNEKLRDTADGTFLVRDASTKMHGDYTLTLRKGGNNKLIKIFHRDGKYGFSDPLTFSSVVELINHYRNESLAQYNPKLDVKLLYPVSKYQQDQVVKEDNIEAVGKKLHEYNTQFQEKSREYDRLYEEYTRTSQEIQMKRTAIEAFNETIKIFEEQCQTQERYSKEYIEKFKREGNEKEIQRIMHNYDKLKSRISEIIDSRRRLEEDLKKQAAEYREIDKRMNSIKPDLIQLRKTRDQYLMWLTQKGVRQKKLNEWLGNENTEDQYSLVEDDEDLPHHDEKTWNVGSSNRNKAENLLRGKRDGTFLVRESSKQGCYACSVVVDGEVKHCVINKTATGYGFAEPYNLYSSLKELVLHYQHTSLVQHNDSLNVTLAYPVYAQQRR
Chain of PI3Kβ (P42338 whole entry): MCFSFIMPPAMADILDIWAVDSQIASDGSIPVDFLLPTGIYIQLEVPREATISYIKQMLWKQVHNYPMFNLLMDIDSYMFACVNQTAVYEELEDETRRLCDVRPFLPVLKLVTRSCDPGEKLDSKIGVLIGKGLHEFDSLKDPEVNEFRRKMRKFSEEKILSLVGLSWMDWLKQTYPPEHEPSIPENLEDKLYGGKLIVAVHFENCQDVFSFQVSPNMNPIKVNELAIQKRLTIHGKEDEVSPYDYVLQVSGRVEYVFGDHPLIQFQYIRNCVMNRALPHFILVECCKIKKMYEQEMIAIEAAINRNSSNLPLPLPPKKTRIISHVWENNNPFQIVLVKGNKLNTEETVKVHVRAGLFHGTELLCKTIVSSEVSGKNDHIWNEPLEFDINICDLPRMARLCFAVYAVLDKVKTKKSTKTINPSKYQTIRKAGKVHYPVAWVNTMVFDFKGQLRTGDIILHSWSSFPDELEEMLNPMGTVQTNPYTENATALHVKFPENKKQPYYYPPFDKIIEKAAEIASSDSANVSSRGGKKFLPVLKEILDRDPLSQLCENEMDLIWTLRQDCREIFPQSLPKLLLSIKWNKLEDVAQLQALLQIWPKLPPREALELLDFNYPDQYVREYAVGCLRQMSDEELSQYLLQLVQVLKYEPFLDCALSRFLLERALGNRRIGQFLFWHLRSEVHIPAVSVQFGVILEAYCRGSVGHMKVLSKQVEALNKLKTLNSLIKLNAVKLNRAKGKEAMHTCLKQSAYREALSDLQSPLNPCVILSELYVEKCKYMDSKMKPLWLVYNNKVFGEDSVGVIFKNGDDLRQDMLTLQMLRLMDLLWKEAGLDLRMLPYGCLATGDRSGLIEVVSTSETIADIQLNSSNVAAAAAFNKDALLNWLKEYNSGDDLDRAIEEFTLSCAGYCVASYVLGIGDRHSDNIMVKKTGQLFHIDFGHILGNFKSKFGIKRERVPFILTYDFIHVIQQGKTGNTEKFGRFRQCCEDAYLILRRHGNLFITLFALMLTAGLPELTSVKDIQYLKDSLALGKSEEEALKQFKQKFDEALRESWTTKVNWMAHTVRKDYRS
Chain of PI3Kβ (P27986 whole entry partner): as the sequence (P27986 whole entry partner) above

IC50 (PI3Kγ) | IC50 (PI3Kδ) | IC50 (PI3Kβ) | PI3Kγ/PI3Kβ ratio (PI3Kβ) | PI3Kγ/PI3Kβ ratio (PI3Kβ; listed as (S)-2,4-diamino-6-(1-(5-chloro-4-oxo-3-phenyl-3,4-dihydroquinazolin-2-yl)ethyl)) | Structure (SMILES)
2600 nM | 6 nM | 2 nM |  |  | Cc1nc(N)nc(N[C@@H](C)c2nc3c(F)ccc(Cl)c3c(=O)n2C2[C@H]3CNC[C@@H]23)c1C#N (stereo partly drawn) [Compound 16, 4-(((1S)-1-(3-((1R,5S)-3-azabicyclo[3.1.0]hexan-6-yl)-5-chloro-8-fluoro-4-oxo-3,4-dihydroquinazolin-2-yl)ethyl)amino)-2-amino-6-methylpyrimidine-5-carbonitrile]
2800 nM | 4 nM | 3 nM |  |  | C[C@H](Nc1nc(N)nc(N)c1C#N)c1nc2c(F)ccc(Cl)c2c(=O)n1C1[C@H]2CNC[C@@H]12 (stereo partly drawn) [Compound 17, 4-(((1S)-1-(3-((1R,5S)-3-azabicyclo[3.1.0]hexan-6-yl)-5-chloro-8-fluoro-4-oxo-3,4-dihydroquinazolin-2-yl)ethyl)amino)-2,6-diaminopyrimidine-5-carbonitrile]
> 10000 nM | 830 nM |  |  |  | C[C@H](Nc1nc(N)nc(N)c1C#N)c1nc2cccc(Cl)c2c(=O)n1[C@@H]1CCCNC1 [Compound 27, 2,4-diamino-6-(((S)-1-(5-chloro-4-oxo-3-((R)-piperidin-3-yl)-3,4-dihydroquinazolin-2-yl)ethyl)amino)pyrimidine-5-carbonitrile]
 |  |  | 0.6 | less than 1 | C[C@H](Nc1nc(N)nc(N)c1C#N)c1nc2cccc(Cl)c2c(=O)n1-c1ccccc1 [Compound X, (S)-2,4-diamino-6-((1-(5-chloro-4-oxo-3-phenyl-3,4-dihydroquinazolin-2-yl)ethyl)amino)pyrimidine-5-carbonitrile, reference compound]
